In assay [1] the target is T1, canine cardiac cyclic nucleotide phosphodiesterase (PDE) fraction III (Canis lupus familiaris, UniProt A0A8I3NYE0).
T1 construct: The fraction III isoenzyme was pooled and dialyzed; from tissue; host or cells: canine heart, soluble supernatant, DEAE cellulose fraction III (800 mM sodium acetate eluate)
T1 sequence (A0A8I3NYE0 1-1135): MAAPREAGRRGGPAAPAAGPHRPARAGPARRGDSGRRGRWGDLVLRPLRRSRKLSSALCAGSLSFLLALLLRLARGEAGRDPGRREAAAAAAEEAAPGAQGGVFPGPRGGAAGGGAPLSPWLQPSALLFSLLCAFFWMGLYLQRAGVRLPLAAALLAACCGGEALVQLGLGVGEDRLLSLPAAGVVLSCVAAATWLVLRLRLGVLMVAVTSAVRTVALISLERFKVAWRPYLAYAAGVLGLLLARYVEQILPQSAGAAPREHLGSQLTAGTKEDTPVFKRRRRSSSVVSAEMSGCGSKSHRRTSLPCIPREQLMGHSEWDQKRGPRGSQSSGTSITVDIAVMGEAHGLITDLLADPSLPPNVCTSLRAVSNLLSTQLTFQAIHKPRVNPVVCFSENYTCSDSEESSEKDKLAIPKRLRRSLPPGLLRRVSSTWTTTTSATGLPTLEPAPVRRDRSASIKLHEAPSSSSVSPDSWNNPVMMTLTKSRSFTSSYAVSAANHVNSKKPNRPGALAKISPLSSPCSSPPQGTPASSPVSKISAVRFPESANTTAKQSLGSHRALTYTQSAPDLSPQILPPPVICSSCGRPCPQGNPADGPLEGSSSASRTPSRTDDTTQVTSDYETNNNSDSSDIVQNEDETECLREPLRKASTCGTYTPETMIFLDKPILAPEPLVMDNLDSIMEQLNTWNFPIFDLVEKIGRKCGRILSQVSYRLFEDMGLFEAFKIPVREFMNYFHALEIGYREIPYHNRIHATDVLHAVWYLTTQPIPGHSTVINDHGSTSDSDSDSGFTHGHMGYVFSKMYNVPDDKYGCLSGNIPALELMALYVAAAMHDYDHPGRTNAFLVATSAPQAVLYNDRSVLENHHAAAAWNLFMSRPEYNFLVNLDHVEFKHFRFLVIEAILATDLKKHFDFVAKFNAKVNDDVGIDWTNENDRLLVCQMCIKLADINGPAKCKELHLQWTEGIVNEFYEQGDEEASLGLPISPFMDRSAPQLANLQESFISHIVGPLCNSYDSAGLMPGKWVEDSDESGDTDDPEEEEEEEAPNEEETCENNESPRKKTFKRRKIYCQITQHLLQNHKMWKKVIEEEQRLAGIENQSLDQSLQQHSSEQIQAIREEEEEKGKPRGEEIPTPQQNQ
In words: Cyclic AMP phosphodiesterase assay with fraction III isoenzyme, comparative testing. Format: biochemical.

The test system of assay [2] is human platelet aggregation. Put plainly: Platelet aggregation in vitro in platelet rich plasma. It is filed as cell-based. The following applies: for IC50: human PRP. On the procedure:
The racemate and enantiomeric Bemoradan were tested for their effects in vitro on human platelet aggregation. Platelet rich plasma (PRP) was prepared from human donors who were free of aspirin for the preceding week. Venous blood was collected in sodium citrate vacutainer tubes and PRP was obtained by centrifuging the blood at l000 rpm for 5 min. Compounds were dissolved in methanol and added to 480 µl of PRP in a Chrono-log dual channel aggregometer l min prior to aggregant. Serotonin at 5 µM or ADP at 2 µM were the aggregating agents.

The mark [3] stands for this setting: Table I summary, canine cardiac PDE fraction III, read-out: PDE III inhibition (IC50).
[4] abbreviates: canine heart fraction III, 0.1 µM cyclic AMP, read-out: PDE III IC50.
The mark [5] stands for this setting: ADP at 2 µM, read-out: Antiaggregatory IC50 (µM) vs. ADP.
Setting [6] is: Serotonin at 5 µM, read-out: Antiaggregatory IC50 (µM) vs. 5-HT.
Where [7] appears, read: Table I summary, ADP at 2 µM as aggregant, read-out: Platelet aggregation (IC50) vs. ADP.
Where [8] appears, read: Table I summary, serotonin at 5 µM as aggregant, read-out: Platelet aggregation (IC50) vs. 5-HT (serotonin).

This note sets out measurements from patent publication EP0509845A1, “(+) and (-) enantiomers of 5-aliphatic-6-(benzoxazinyl- or benzothiazinyl)-2,3,4,5-tetrahydropyridazin-3-ones” (ORTHO PHARMACEUTICAL CORPORATION, priority 1991, dated 1992).

Like-named read-outs stand apart in the source and are kept apart here.

In general, IC50 refers to the concentration at which inhibition is half-maximal.

On to `CC1CC(=O)NN=C1c1ccc2c(c1)OCC(=O)N2` (single isomer, unassigned; isomer 6) [(+) isomer, 6-(3,4-dihydro-3-oxo-l,4(2H)-benzoxazin-7-yl)-2,3,4,5-tetrahydro-5-methyl-pyridazin-3-one], for which the IC50 in assay [1] (setting [3]) amounted to 8000 nM; in assay [1] (setting [4]) it was 8000 nM; in assay [2] (setting [5]), 3.8 µM; in assay [2] (setting [6]), 8 µM; in assay [2] (setting [7]), 3.8 µM; in assay [2] (setting [8]) it was 8 µM.

In the case of `CC1CC(=O)NN=C1c1ccc2c(c1)OCC(=O)N2` (single isomer, unassigned; isomer 6) [(-) isomer, 6-(3,4-dihydro-3-oxo-l,4(2H)-benzoxazin-7-yl)-2,3,4,5-tetrahydro-5-methyl-pyridazin-3-one], the “Potency Difference (-vs+), PDE III inhibition (IC50)” value in assay [1] ((-) isomer versus (+) isomer) worked out at 44 x. Besides, the “times more potent than the (+) isomer, inhibition of PDE III” value in assay [1] ((-) isomer versus (+) isomer) was about 44 times. For the same compound, in assay [1] ((-) isomer versus racemate), the “times more potent than the racemate, inhibition of PDE III” value is given as “approximately 4 times”. Also, the IC50 in assay [1] (setting [3]) worked out at 180 nM; in assay [1] (setting [4]) it was 180 nM; in assay [2] (setting [5]) it was 0.32 µM; in assay [2] (setting [6]), 0.5 µM; in assay [2] (setting [7]) it was 0.32 µM; in assay [2] (setting [8]) it was 0.5 µM. For the same compound, the “Potency Difference (-vs+), Platelet aggregation (IC50) vs. 5-HT (serotonin)” value in assay [2] ((-) isomer versus (+) isomer) is listed as 16x. Moreover, the “Potency Difference (-vs+), Platelet aggregation (IC50) vs. ADP” value in assay [2] ((-) isomer versus (+) isomer) is on record as 12x.
